According to patent US20090156657A1, “ANTI-INFLAMMATORY COMPOSITION” (Ajinomoto Co., Inc., priority 2006, published 2009):

What was measured:
MCP-1 = MCP-1 secretion into medium of HAEC (immunoassay); type: cell-based, human; conditions: 0.1-10 μM 24 h, 25 mM glucose 4 h, FIG. 4B
Experimental: HAEC cells proliferated to confluence in a 96 well microplate were pre-incubated with 0.1-10 μM serotonin derivative for 24 hours, and stimulated with 25 mM glucose for 4 hours. The cell layer was washed with Hanks solution, and then anti-VCAM-1 monoclonal antibody (Becton Dickinson) was added and the cells were incubated at 37° C. for 1 hour. After washing, the cells were incubated with secondary antibody (peroxidase-labeled anti-mouse IgG goat F(ab′)2 fragment; Cappel) for 1 hour. A color development substrate (o-phenylenediamine dihydrochloride) was added and, about 30 minutes later (room temperature), the absorbance (492 nm) of each well was quantified with a microplate reader. The MCP-1 concentration of the medium was quantified with Human MCP-1 Immunoassay Kit (BioSource International).

MCP-1 mRNA = MCP-1 mRNA expression in HAEC by real-time PCR; type: cell-based, human; conditions: 10 μM 24 h, 25 mM glucose 3 h, GAPDH internal standard, FIG. 3B
Experimental: HAEC cells pre-treated with 10 μM of CS or FS for 24 hours were stimulated with 25 mM glucose for 3 hours, and total RNA was extracted with Isogenkit (NIPPON GENE CO., LTD.). From 1 μg of RNA, cDNA was synthesized using 100 U/mL of reverse transcriptase (TAKARA BIO INC.) and 0.1 μM of oligo (dT)-adapter (TAKARA BIO INC.) (total volume of reaction mixture; 50 μL) (42° C., 40 minutes). Real-time PCR was performed using 7300 Real Time PCR system (Applied Biosystems Japan Ltd.) and the PCR product was detected by SYBER Green I.
PCR reaction composition (RT-PCRkit, TAKARA BIO INC.): 12.5 μL Premix Ex Taq, 2.5 μL SYBER Green I, synthesis primer, ROX reference dye, cDNA (corresponding to 20 ng of total RNA), final reaction volume; 25 μL
Primers having the following sequences were used.
PCR was conducted under the following conditions.
thermal denaturation: at 95° C. for 15 seconds, extension reaction: 40 cycles (3 seconds at 95° C., 31 seconds at 60° C.)
Expression amounts of VCAM-1 and MCP-1 mRNA were calculated using GAPDH as the internal standard.

Compound: COc1cc(/C=C/C(=O)NCCc2c[nH]c3ccc(O)cc23)ccc1O [FS, N-feruloyl serotonin]
- MCP-1 secretion into the medium (MCP-1): suppressed the induction of their expressions in a dose-dependent manner
- expression amount of MCP-1 mRNA (MCP-1 mRNA): significantly suppressed the increase
